Test results published in the OligoGym collection.
Oligonucleotides are written 5' to 3', each unit as a sugar letter and its base; * is a phosphorothioate linkage, no mark a phosphodiester; rarer units and linkages stand in square brackets, end groups in braces. Plain capitals give the bases only. Oligonucleotides are given in HELM: sugar(base)linkage, 5' to 3'; d 2'-deoxyribose, r ribose, m 2'-O-methylribose, p phosphate. ss, as = sense and antisense strand; d = 2'-deoxy (DNA); r = 2'-OH (RNA)

Biological target: UBE2J1
Test: reporter assay of Huesken 2005
Settings: siRNA
Note: test concentration or dose not given here.

Substance	normalised inhibition (eCFP-eYFP dual reporter) [%]
sense rGrUrUrGrCrCrUrUrUrArArArArUrCrUrGrGrAdTdT / antisense rUrCrCrArGrArUrUrUrUrArArArGrGrCrArArCdAdG	55.2
sense rUrUrUrArUrCrArCrGrGrGrCrGrGrArUrArGrUdTdT / antisense rArCrUrArUrCrCrGrCrCrCrGrUrGrArUrArArAdCdT	51.8
sense rGrUrUrUrGrArGrCrArUrCrUrCrArGrGrCrCrAdTdT / antisense rUrGrGrCrCrUrGrArGrArUrGrCrUrCrArArArCdAdG	72.6
sense rGrArArGrUrCrArArUrUrCrArUrCrUrGrGrArAdTdT / antisense rUrUrCrCrArGrArUrGrArArUrUrGrArCrUrUrCdTdG	75.3
sense rArUrGrArArArCrCrArCrCrArArGrCrArUrUrAdTdT / antisense rUrArArUrGrCrUrUrGrGrUrGrGrUrUrUrCrArUdGdG	68.1
sense rUrGrUrCrUrArCrUrUrCrArCrCrArGrArUrGrUdTdT / antisense rArCrArUrCrUrGrGrUrGrArArGrUrArGrArCrAdAdC	73.1
sense rArCrArGrCrArUrUrArUrUrArGrCrCrArUrCrAdTdT / antisense rUrGrArUrGrGrCrUrArArUrArArUrGrCrUrGrUdCdC	54.7
sense rArUrCrArUrUrArCrCrArUrGrCrGrCrArGrCrCdTdT / antisense rGrGrCrUrGrCrGrCrArUrGrGrUrArArUrGrArUdCdT	55.2
sense rCrCrCrArArCrCrUrGrUrArGrCrUrArArGrArAdTdT / antisense rUrUrCrUrUrArGrCrUrArCrArGrGrUrUrGrGrGdTdA	78.5
sense rArGrArGrArArGrGrUrUrGrUrCrUrArCrUrUrCdTdT / antisense rGrArArGrUrArGrArCrArArCrCrUrUrCrUrCrUdGdA	78.8
sense rUrGrGrUrGrGrGrUrCrArGrCrUrGrUrArCrUrGdTdT / antisense rCrArGrUrArCrArGrCrUrGrArCrCrCrArCrCrAdTdG	83.4
sense rArUrCrCrArGrGrGrCrCrArCrCrArGrCrCrArAdTdT / antisense rUrUrGrGrCrUrGrGrUrGrGrCrCrCrUrGrGrArUdTdA	76
sense rUrArArCrGrGrCrUrArArUrGrGrUrCrGrArUrUdTdT / antisense rArArUrCrGrArCrCrArUrUrArGrCrCrGrUrUrAdGdG	84
sense rCrCrUrUrUrCrArUrCrArArCrCrUrArCrCrCrAdTdT / antisense rUrGrGrGrUrArGrGrUrUrGrArUrGrArArArGrGdAdT	56.2
sense rArUrUrUrArCrArArGrArUrGrArUrArUrArCrCdTdT / antisense rGrGrUrArUrArUrCrArUrCrUrUrGrUrArArArUdCdA	47.6
sense rGrCrUrGrUrArCrUrGrArUrUrGrUrCrArUrCrCdTdT / antisense rGrGrArUrGrArCrArArUrCrArGrUrArCrArGrCdTdG	62.4
sense rCrCrGrGrGrCrCrCrArGrCrArGrCrArGrArGrUdTdT / antisense rArCrUrCrUrGrCrUrGrCrUrGrGrGrCrCrCrGrGdCdG	47.4
sense rUrArUrCrUrGrGrCrArArArCrGrArArUrArCrAdTdT / antisense rUrGrUrArUrUrCrGrUrUrUrGrCrCrArGrArUrAdTdA	91.6
sense rUrGrCrCrArArCrArArArArGrGrArGrArGrGrGdTdT / antisense rCrCrCrUrCrUrCrCrUrUrUrUrGrUrUrGrGrCrAdTdA	28.7
sense rArGrGrArCrArGrCrArUrUrArUrUrArGrCrCrAdTdT / antisense rUrGrGrCrUrArArUrArArUrGrCrUrGrUrCrCrUdTdA	74.8
sense rGrGrArGrArGrGrGrArGrCrCrArUrArGrGrUrUdTdT / antisense rArArCrCrUrArUrGrGrCrUrCrCrCrUrCrUrCrCdTdT	61
sense rUrArArUrGrGrUrCrGrArUrUrUrGrArArGrUrGdTdT / antisense rCrArCrUrUrCrArArArUrCrGrArCrCrArUrUrAdGdC	46.3
sense rUrGrGrCrArArArCrGrArArUrArCrArUrArUrUdTdT / antisense rArArUrArUrGrUrArUrUrCrGrUrUrUrGrCrCrAdGdA	110
sense rUrCrArUrCrArArCrCrUrArCrCrCrArArCrCrUdTdT / antisense rArGrGrUrUrGrGrGrUrArGrGrUrUrGrArUrGrAdAdA	47.9
sense rGrArCrCrArArGrArArGrCrCrArArArGrArArCdTdT / antisense rGrUrUrCrUrUrUrGrGrCrUrUrCrUrUrGrGrUrCdAdG	56.7
sense rUrCrUrGrUrUrUrGrArGrCrArUrCrUrCrArGrGdTdT / antisense rCrCrUrGrArGrArUrGrCrUrCrArArArCrArGrAdTdT	56
sense rGrCrGrCrCrGrGrGrCrCrCrArGrCrArGrCrArGdTdT / antisense rCrUrGrCrUrGrCrUrGrGrGrCrCrCrGrGrCrGrCdTdG	35.3
sense rGrCrCrUrUrUrArArArArUrCrUrGrGrArArGrCdTdT / antisense rGrCrUrUrCrCrArGrArUrUrUrUrArArArGrGrCdAdA	50.4
sense rGrCrCrArCrCrArGrArGrUrArUrCrCrCrArUrGdTdT / antisense rCrArUrGrGrGrArUrArCrUrCrUrGrGrUrGrGrCdAdG	53.6

Biological target: Cacnb1 (rat)
Test: reporter assay of Huesken 2005
Settings: siRNA

Substance	normalised inhibition (eCFP-eYFP dual reporter) [%]
RNA1{r(A)p.r(G)p.r(C)p.r(C)p.r(G)p.r(G)p.r(C)p.r(C)p.r(G)p.r(U)p.r(C)p.r(A)p.r(G)p.r(A)p.r(C)p.r(U)p.r(C)p.r(C)p.r(G)p.d(T)p.d(T)}|RNA2{r(C)p.r(G)p.r(G)p.r(A)p.r(G)p.r(U)p.r(C)p.r(U)p.r(G)p.r(A)p.r(C)p.r(G)p.r(G)p.r(C)p.r(C)p.r(G)p.r(G)p.r(C)p.r(U)p.d(C)p.d(G)}$$$RNA1{StrandType:ss}|RNA2{StrandType:as}$	44.2
RNA1{r(A)p.r(C)p.r(A)p.r(C)p.r(G)p.r(G)p.r(A)p.r(G)p.r(C)p.r(C)p.r(A)p.r(G)p.r(G)p.r(A)p.r(G)p.r(A)p.r(C)p.r(U)p.r(C)p.d(T)p.d(T)}|RNA2{r(G)p.r(A)p.r(G)p.r(U)p.r(C)p.r(U)p.r(C)p.r(C)p.r(U)p.r(G)p.r(G)p.r(C)p.r(U)p.r(C)p.r(C)p.r(G)p.r(U)p.r(G)p.r(U)p.d(A)p.d(G)}$$$RNA1{StrandType:ss}|RNA2{StrandType:as}$	48.8
RNA1{r(C)p.r(U)p.r(U)p.r(G)p.r(G)p.r(A)p.r(A)p.r(G)p.r(C)p.r(C)p.r(U)p.r(A)p.r(C)p.r(U)p.r(G)p.r(G)p.r(A)p.r(A)p.r(G)p.d(T)p.d(T)}|RNA2{r(C)p.r(U)p.r(U)p.r(C)p.r(C)p.r(A)p.r(G)p.r(U)p.r(A)p.r(G)p.r(G)p.r(C)p.r(U)p.r(U)p.r(C)p.r(C)p.r(A)p.r(A)p.r(G)p.d(T)p.d(A)}$$$RNA1{StrandType:ss}|RNA2{StrandType:as}$	60.9
